Five compounds from patent US11472787B2, “Docosahexaenoic acid endocannabinoid epoxide derivative compositions” (The Board of Trustees of the University of Illinois, priority 2017, dated 2022) can be followed below.

Series [1] deals with Fatty acid amide hydrolase (FAAH) (Sus scrofa (Pig), UniProt Q9TUI8). Put plainly: Susceptibility to FAAH hydrolysis in pig brain membrane preparations. To be noted: pig forebrain membranes, amide at 20 μM, 40 min. The protocol:
Fatty acid amide hydrolase (FAAH) is a ubiquitously expressed protein in various mammals and the sequence of the protein has shown to be highly conserved in humans, mouse and pig. […] The preparation of pig forebrain membranes was achieved using dounce homogenization in buffer (50 mM Tris pH 7.4, 1 mM EDTA and 3 mM MgCl2) and membrane pelleting as previously described (Hillard, C. J.; Wilkison, D. M.; Edgemond, W. S.; Campbell, W. B. Characterization of the kinetics and distribution of N-arachidonylethanolamine (anandamide) hydrolysis by rat brain. Biochim Biophys Acta 1995, 1257, 249-56). Incubations contained 5 μg forebrain protein in a 0.5 mL reaction containing 50 mM Tris (pH 7.4), 1 mM EDTA, 3 mM MgCl2, and amide at 20 μM. At 40 min reactions were quenched with methanol containing 1 mM PMSF and centrifuged to pellet protein (10,000 g×10 min). The supernatant was collected and analyzed via LC-MS/MS as outlined below.
The products of hydrolysis were measured by LC-MS/MS as indicated in materials and methods section.

The next series addresses CNR2 (CB2) (Homo sapiens (Human), UniProt P34972). Put plainly: Presto-Tango β-arrestin recruitment assay, CNR2. In kind it is cell-based. To be noted: HTLA cells. Here is the method:
(§1) Binding of the parent compounds to putative receptors CNR1 and CNR2 (cannabinoid receptors 1& 2) was measured by a Presto-Tango assay (FIG. 5A and FIG. 5B). […] HTLA were received from the Roth Lab and CNR1 and CNR2 plasmids were purchased from Addgene. HTLA cells were maintained in DMEM with 10% FBS containing 2 μg/mL of puromycin and 100 μg/mL of hygromycin B at 37° C. in a 5% CO2 humidified air atmosphere and grown to 80-90% confluency. Cells were then seeded at 20,000 cells per 100 uL into poly-L-lysine coated 96-well plate. After 18-24 hrs, cells were transfected with CNR2 (0.1 ug/well) using Calfectin as the transfection reagent. Transfection media was replaced after 12-18 hours with serum-media and proceeded for ˜36 hours. On the day of the assay, serum-media was replaced with serum-free media for 4 hours, then the compounds were added in a log dose manner in DMSO to a final well volume of 200 uL and incubated overnight. The next day, media was removed and 20 μL of Bright-Glo solution was added to the cells and incubated for 20 min at room temperature in the dark and measured for luminescence. Relative luminescence units (RLU) values were normalized to % receptor response, plotted as a function of compound concentration and analyzed using “DoseResp” in OriginPro.

The subject of series [2] is 143B cells. The series can be described thus: Scratch (wound migration) assay in 143B cells. The format is cell-based. Here is the method: (§2) A scratch assay was performed to analyze the anti-migratory properties of the three derivatives (FIGS. 3A-3C and 7). Cells were grown and maintained in Dulbecco's modified Eagle's medium supplemented with 10% fetal bovine serum, 1% streptomycin and penicillin at 37° C. in a 5% CO2 humidified air atmosphere in a 12 well plate to a confluent monolayer and then a scratch was made across the center and images were taken. The media was changed and appropriate compounds and controls were added and images of the scratch were taken every 2 hours. The images were processed by ImageJ software. In HOS cells (FIG. 3A), all 10,11-EDP derivatives restricted wound migration at 5 μM concentration.

In series [3] the test system is MG63 cells. The series can be described thus: Annexin V binding apoptosis assay in MG63 cells. The format is cell-based. The note with it: 12.5 μM, 24 hours. The protocol: (§3) All three amino-modified derivatives of 10,11-EDP were tested for their apoptotic activity using a BD biosciences Annexin V binding assay for apoptosis at 12.5 μM concentration (FIG. 2). Cells were grown and maintained in Dulbecco's modified Eagle's medium supplemented with 10% fetal bovine serum, 1% streptomycin and penicillin at 37° C. in a 5% CO2 humidified air atmosphere in 12 well plate to 90% confluency and then appropriate amount of compound or control was added to the well. The cells were incubated for 24 hours and then prepared for apoptosis assays as indicated in BD biosciences Annexin V binding assay kit instructions and analyzed by BD Accuri C6 flow cytometer and FCS flow software. […] However, their effects were not consistent in trend among the three cell lines. The cyclopropyl analog seemed to have the highest pro-apoptotic potential among the three within error limits. […] In 143B cells the increase in pro-apoptotic potential was only 18.8±0.3% for the iso-propyl derivative as compared to 25.7±0.4% for the n-propyl derivative.

For series [4], the system named is MG63 cells. Put plainly: Scratch (wound migration) assay in MG63 cells. In kind it is cell-based. The note with it: MG63 cell line. Here is the method: as §2
In series [5] the test system is HOS cells. The series can be described thus: Annexin V binding apoptosis assay in HOS cells. The format is cell-based. To be noted: 12.5 μM, 24 hours. The protocol:
as §3

Series [6] deals with HOS cells. Put plainly: Scratch (wound migration) assay in HOS cells. In kind it is cell-based. The note with it: 5 μM; for restriction of wound migration as compared to control: over 10 hours. Here is the method:
as §2

For another series, the target named is CNR1 (CB1) (Homo sapiens (Human), UniProt P21554). Put plainly: Presto-Tango β-arrestin recruitment assay, CNR1. The format is cell-based. The note with it: HTLA cells. Here is the method:
as §1
(In general: Recruitment of arrestin is a read-out of receptor activation apart from second messengers.)

Series [7] relates to 143B cells. The series can be described thus: Annexin V binding apoptosis assay in 143B cells. The format is cell-based. The note with it: 12.5 μM, 24 hours. Here is the method: as §3
For a further series, the system named is HUVEC cells. The series can be described thus: Endothelial tube formation (angiogenesis) assay on matrigel. In kind it is cell-based. To be noted: 0.5 μM or 1 μM compound, 5 hours. From the text:
Increased angiogenesis is one of the hallmarks of cancer. The development of neo-vascularization is key for the adequate supply of nutrients and oxygen to the site of metastasis. Endothelial tube formation on matrix has been established as a cellular model for angiogenesis. Endothelial HUVEC cells form a networks of tubes when plated on matrigel and the tube formation in presence and absence of treatment can be quantified as a measure of restricted angiogenic potential.
Angiogenesis in endothelial HUVEC cells was measured using abcam angiogenesis kit (ab204726). Briefly, HUVEC cells at passage 2 (p=2) were grown to 80% confluency. The matrigel provided was thawed overnight and 50 μL was put into each well of a 96 well plate that had been chilled overnight in a −20° C. freezer. The plate was rocked slightly and then allowed to incubate at 37° C. for 1 hour. 15,000 HUVEC cells were then plated into the wells and were treated with vehicle control or 0.5 μM or 1 μM compound. A no matrix control and a control with vinblastine (inhibitor of angiogenesis) was also performed. All wells were performed in duplicates. The plates were then incubated for 5 hours at 37° C. […] The wells were imaged using a fluorescent microscope and analyzed using ImageJ with Angiogenesis Analyzer Plugin. […] The tube formation was assessed by Image J analysis.

Another series has as its system BV-2 microglial cells. The series can be described thus: Anti-inflammatory assay in LPS-stimulated microglial cells. In kind it is cell-based, mouse. To be noted: BV-2 cells, 4 hours pre-incubation, 25 ng/mL LPS. The protocol: The anti-inflammatory effect of parent compounds was tested by measuring nitrite production in Bv2 microglial cells and the reduction in pro-inflammatory cytokine IL-6 (FIG. 4). Experiments were performed with mouse BV-2 microglial cells. Cells were grown and maintained in Dulbecco's modified Eagle's medium supplemented with 10% fetal bovine serum, 1% streptomycin and penicillin at 37° C. in a 5% CO2 humidified air atmosphere. BV-2 cells were seeded in 24-well plates (200K cells/mL) and grown to 80-90% confluency. For regioisomer screening and dose response studies, media was replaced with serum-free media and the cells were pre-incubated with the regioisomers for 4 hours prior to stimulation with 25 ng/mL LPS (Sigma-Aldrich, USA). Production of nitric oxide (NO) and cell toxicity and IL-6 production were measured.

For orientation: EC50 means the midpoint of the concentration-response curve. Higher therefore signals a need for much substance.

Fatty acid amide hydrolase (FAAH), sequence (Q9TUI8 whole entry): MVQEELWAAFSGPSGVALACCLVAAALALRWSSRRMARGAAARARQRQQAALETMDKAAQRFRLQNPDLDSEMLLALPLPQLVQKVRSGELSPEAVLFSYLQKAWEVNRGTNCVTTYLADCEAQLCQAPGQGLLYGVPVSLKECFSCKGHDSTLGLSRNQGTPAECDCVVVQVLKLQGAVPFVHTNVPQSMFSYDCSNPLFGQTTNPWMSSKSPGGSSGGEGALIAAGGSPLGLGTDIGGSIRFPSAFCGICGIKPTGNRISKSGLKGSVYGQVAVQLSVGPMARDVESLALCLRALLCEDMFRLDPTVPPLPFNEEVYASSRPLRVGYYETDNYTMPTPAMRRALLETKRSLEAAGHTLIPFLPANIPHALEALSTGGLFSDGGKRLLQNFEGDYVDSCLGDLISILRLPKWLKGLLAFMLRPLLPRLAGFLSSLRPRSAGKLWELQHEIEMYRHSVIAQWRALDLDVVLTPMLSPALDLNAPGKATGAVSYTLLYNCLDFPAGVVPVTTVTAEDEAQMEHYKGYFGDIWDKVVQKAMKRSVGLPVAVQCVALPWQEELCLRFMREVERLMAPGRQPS

The compound `CC/C=C\C/C=C\C/C=C\CC1OC1C/C=C\C/C=C\CCC(=O)NC1CC1` (stereo not shown) [10,11-EDP-CA, (4Z,7Z)—N-Cyclopropyl-9-(3-((2Z,5Z,8Z)-undeca-2,5,8-trien-1-yl)oxiran-2-yl)nona-4,7-dienamide] displayed a rate of hydrolysis in series [1] of 5.17±0.06 pmol min^−1 mg protein^−1. Further, the results for the EC50 at CNR2 (CB2) and on CNR1 (CB1) were 0.46 nM and 0.03 nM, respectively. Further, in the series on 143B cells [2], the “restriction in wound migration as compared to the control” value is on record as “most potent”. Besides, the figures for the “apoptosis (apoptotic potential)” value in the series on MG63 cells [3], in the series with HOS cells [5] and in the series on 143B cells [7] were 17.09±4.4%, 27.19±4.05% and 21.3±1.9%, respectively. Moreover, in the series on MG63 cells [4], the “restriction in wound healing as compared to the control” value is reported as “comparable to 10, 1-EDP-EA”. Also, the “inhibition of migration more than vehicle control” value with HOS cells [6] (8 and 10 hour time points) was 4.5-6 times. Moreover, in the series with HOS cells [6], the “restriction of wound migration as compared to control” value (“restriction … compared to control” below) was “most potent”.

Compound `CC/C=C\C/C=C\C/C=C\CC1OC1C/C=C\C/C=C\CCC(=O)NC(C)CO` (stereo not shown) [10,11-EDP-IA, (4Z,7Z)—N-(1-Hydroxypropan-2-yl)-9-(3-((2Z,5Z,8Z)-undeca-2,5,8-trien-1-yl)oxiran-2-yl)nona-4,7-dienamide] registered a rate of hydrolysis in series [1] of 0.99±0.04 pmol min^−1 mg protein^−1. The EC50 turned out to be 0.08 nM on CNR2 (CB2) and 0.07 nM on CNR1 (CB1). Further, the “restriction in wound migration as compared to the control” value in the series with 143B cells [2] is reported as 1-3.9 times. For the same compound, the “apoptosis (apoptotic potential)” value is 17.48±2.8% in the series with MG63 cells [3], 20.15±1.75% in the series on HOS cells [5] and 18.8±0.3% in the series on 143B cells [7]. For the same compound, in the series on MG63 cells [4], the “restriction in wound healing as compared to the control” value is reported as “slightly poorer than the control”. For the same compound, in the series with HOS cells [6], the “restriction … compared to control” value was 1-1.75 times.

In series [1], `CC/C=C\C/C=C\C/C=C\CC1OC1C/C=C\C/C=C\CCC(=O)NCCO` (stereo not shown) [10,11-EDP-EA, reference compound] returned a rate of hydrolysis of 30.0±0.3 pmol min^−1 mg protein^−1. For the same compound, the results for the EC50 at CNR2 (CB2) and at CNR1 (CB1) were 22.5 nM and 0.43 nM, respectively. Also, the “restriction in wound migration as compared to the control” value in the series with 143B cells [2] was 1-1.9 times. Moreover, the “restriction in wound healing as compared to the control” value in the series with MG63 cells [4] is 1-2 times. Moreover, the “tube formation (angiogenesis)” value in the series with HUVEC cells was “Prevent Angiogenesis”. The “restriction … compared to control” value with HOS cells [6] is listed as 1.00-1.44 times.

As to `CCC1OC1C/C=C\C/C=C\C/C=C\C/C=C\C/C=C\CCC(=O)NCCO` (stereo not shown) [19,20-EDP-EA], in series [1], the rate of hydrolysis amounted to 150 pmol min^−1 mg protein^−1. Besides, in the series with BV-2 microglial cells, the IL-6 production entry was “reduction in 11-6 and nitrite in a dose dependent manner”; the nitrite production entry is “reduction in 11-6 and nitrite in a dose dependent manner”.

Consider `CC/C=C\C/C=C\C/C=C\CC1OC1C/C=C\C/C=C\CCC(=O)NCCCO` (stereo not shown) [10,11-EDP-NA, (4Z,7Z)—N-(3-Hydroxypropyl)-9-(3-((2Z,5Z,8Z)-undeca-2,5,8-trien-1-yl)oxiran-2-yl)nona-4,7-dienamide], for which the EC50 worked out at 7.3 nM at CNR2 (CB2) and 0.19 nM at CNR1 (CB1). In addition, the “restriction in wound migration as compared to the control” value in the series with 143B cells [2] is 1-1.47 times. Moreover, the results for the “apoptosis (apoptotic potential)” value in the series on MG63 cells [3], in the series with HOS cells [5] and with 143B cells [7] were 15.15±3.28%, 17.05±1.4% and 25.7±0.4%, respectively. Also, in the series with MG63 cells [4], the “restriction in wound healing as compared to the control” value is on record as “slightly poorer than the control”. For the same compound, the “restriction … compared to control” value in the series with HOS cells [6] is 1-1.7 times.
